The nature of data set [1]: Metabolic stability in human liver microsomes assessed as intrinsic clearance preincubated for 5 mins followed by NADPH addition measured upto 60 mins by LC-MS/MS analysis. The format is ADME, Microsome. The following applies: time < 65 min, read-out: CLH. In general terms: Microsomes from liver hold many membrane-bound enzymes, among them those of drug oxidation.
Another data set deals with dengue virus type 3. Description: Antiviral activity against DENV-3 H87 infected in african green monkey Vero cells incubated for 24 hrs measured after 3 days post infection by RT-PCR analysis. Format: functional, organism-based. The following applies: Dengue virus, H87, Vero; read-out: EC50.
The next data set deals with dengue virus type 4. Description: Antiviral activity against DENV-4 H241 infected in african green monkey Vero cells incubated for 24 hrs measured after 3 days post infection by RT-PCR analysis. The format is functional, organism-based.
The next data set concerns dengue virus type 1. Description: Antiviral activity against DENV-1 TC974#666 infected in african green monkey Vero cells incubated for 24 hrs measured after 3 days post infection by RT-PCR analysis. Format: functional, organism-based. The conditions noted are these: read-out: EC50.
A further data set relates to dengue virus type 2. Description: Antiviral activity against DENV-2 16681 expressing eGFP infected in african green monkey Vero cells incubated with cells for 24 hrs followed by viral infection measured after 3 days by laser microscopic analysis. The format is functional, organism-based. The following applies: Dengue virus, 16681, Vero.
The nature of data set [2]: Metabolic stability in rat liver microsomes assessed as intrinsic clearance preincubated for 5 mins followed by NADPH addition measured upto 60 mins by LC-MS/MS analysis. The format is ADME, Microsome. The conditions noted are these: time < 65 min, read-out: CLH.
Data set [3] is described as follows: Metabolic stability in mouse liver microsomes assessed as intrinsic clearance preincubated for 5 mins followed by NADPH addition measured upto 60 mins by LC-MS/MS analysis. The following applies: time < 65 min, read-out: CLH. Format: ADME, Microsome.
The nature of data set [4]: Metabolic stability in human hepatocytes assessed as intrinsic clearance measured per million cells incubated upto 120 mins by LC-MS/MS analysis. The following applies: read-out: CLH. The format is ADME, cell-based, Hepatocyte.
Data set [5] in a line: Clearance in Sprague-Dawley rat at 2.5 mg/kg, iv measured after 24 hrs by LC-MS/MS analysis. The following applies: in vivo. Format: ADME, organism-based.
A short description of data set [6]: Thermodynamic solubility of the compound in aqueous buffer at pH 7.4 measured after 24 hrs by UPLC analysis. Format: physicochemical. The following applies: read-out: Therm_solubility.
Data set [7] is described as follows: Elimination half life in Sprague-Dawley rat at 2.5 mg/kg, iv measured after 24 hrs by LC-MS/MS analysis. The format is ADME, organism-based. The conditions noted are these: in vivo, read-out: beta t1/2 (converted).
The nature of data set [8]: Clearance in Sprague-Dawley rat assessed as liver blood flow at 2.5 mg/kg, iv measured after 24 hrs by LC-MS/MS analysis. The following applies: in vivo. Format: ADME, organism-based.
Data set [9] is described as follows: AUC in Sprague-Dawley rat at 10 mg/kg, po measured after 24 to 48 hrs by LC-MS/MS analysis. Format: ADME, organism-based. The conditions noted are these: in vivo, time 24-48 hrs.
A short description of data set [10]: Chromatographic hydrophobicity index, log D of the compound at pH 7.4 by LC/MS analysis. The conditions noted are these: buffer. The format is physicochemical.
The nature of data set [11]: Volume of distribution at steady state in Sprague-Dawley rat at 2.5 mg/kg, iv measured after 24 hrs by LC-MS/MS analysis. Format: ADME, organism-based. The following applies: in vivo, read-out: Vdss.
Data set [12] is described as follows: Thermodynamic solubility of the compound in PEG400 measured after 24 hrs by UPLC analysis. Format: physicochemical.
A short description of data set [13]: Cmax in Sprague-Dawley rat at 10 mg/kg, po measured after 24 to 48 hrs by LC-MS/MS analysis. The conditions noted are these: in vivo, time 24-48 hrs. The format is ADME, organism-based.
Data set [14] is described as follows: Metabolic stability in rat hepatocytes assessed as intrinsic clearance measured per million cells incubated upto 120 mins by LC-MS/MS analysis. Format: ADME, cell-based, Hepatocyte. The following applies: read-out: CLH.
Data set [15] can be described thus: Oral bioavailability in Sprague-Dawley rat at 10 mg/kg measured after 24 to 48 hrs by LC-MS/MS analysis. Format: ADME, organism-based. The following applies: in vivo, time 24-48 hrs.

Molecules are shown by their SMILES. pEC50: −log10 of the molar value. In brackets after ≈: the same amount, converted by molar mass.

By pEC50 is commonly meant the negative decadic logarithm of the EC50, by convention in mol/L. Broadly, the clearance is a measure of how efficiently the substance is removed, as volume per time. One may read the AUC as the area under the concentration-time curve, a measure of exposure. For orientation: Cmax means the peak of the concentration-time curve. Broadly, the bioavailability is the share of a dose that reaches the circulation, judged against a reference dose that is usually intravenous.

As to `COc1cc(NC(C(=O)c2c[nH]c3ccccc23)c2ccc(F)cc2)cc(OCCO)c1` (stereo unspecified), the values for the microsomal CLint in data set [1], in data set [2] and in data set [3] were below 8 µL/min/mg, 24 µL/min/mg and 94 µL/min/mg, respectively. Also, the pEC50 with dengue virus type 3 was 6.02; with dengue virus type 4, 5.59; in the data set on dengue virus type 1 (Dengue virus, TC974#666, Vero), 7.07; in the data set with dengue virus type 2, 7.85.

Regarding `COc1cc(NC(C(=O)c2c[nH]c3cc(F)ccc23)c2ccc(F)cc2OC)cc(S(C)(=O)=O)c1` (stereo unspecified), the values for the hepatocyte CLint in data set [4] and in data set [14] were below 1.9 µL/min/1e6 cells and 8.5 µL/min/1e6 cells, respectively. In [5], this molecule displayed a clearance of 0.96 L/h/kg. Besides, the negative-log EC50 (pEC50) in the data set on dengue virus type 3 was 7.30; with dengue virus type 4, 6.77; in the data set on dengue virus type 1 (Dengue virus, TC974#666, Vero), 8.10. For the same molecule, in data set [6], the solubility thermodynamic at 24 h was determined as 2 µg/mL (≈ 4 µM). For the same molecule, in data set [7], the half-life was 5.3 h. In [8], the LBF came out at 23%. For the same molecule, in data set [9], the AUC is 5.21 µg·h/mL. For the same molecule, in [10], the “Chromatographic log D at pH 7.4” value is 3.23. In addition, the Vd in data set [11] came to 7.2 L/kg. In addition, in [12], the Therm_solubility was 41000 µg/mL. This molecule returned a Cmax in [13] of 0.418 µg/mL. This molecule also showed a bioavailability in data set [15] of 49%.

Take `COc1cc(NC(C(=O)c2c[nH]c3ccccc23)c2ccc(F)cc2OC)cc(OCCO)c1` (single isomer, unassigned; (+)): the microsomal CLint came out at 8 µL/min/mg in [1], 24 µL/min/mg in [2] and 190 µL/min/mg in data set [3]. Further, the pEC50 in the data set on dengue virus type 3 is 6.68; in the data set with dengue virus type 4, 6.12; with dengue virus type 1 (Dengue virus, TC974#666, Vero) it was 7.40; in the data set on dengue virus type 2 it was 8.05.

Turning to `COc1cc(NC(C(=O)c2c[nH]c3cc(OC)c(C)cc23)c2ccc(Cl)cc2OC)cc(S(C)(=O)=O)c1` (stereo unspecified), the microsomal CLint in data set [1] was below 8 µL/min/mg. Further, in [5], the clearance amounted to 1.38 L/h/kg. Further, the pEC50 with dengue virus type 1 (Dengue virus, TC974#666, Vero) is 9.01; with dengue virus type 1 (vero), 9.05. In data set [6], the solubility thermodynamic at 24 h was 1 µg/mL (≈ 1.84 µM). In addition, in data set [7], the half-life was 4.4 h. Besides, in data set [8], the LBF is on record as 33%. In data set [9], this molecule returned an AUC of 5.14 µg·h/mL. Also, in data set [11], the Vd came to 8.8 L/kg. The same molecule displayed a Therm_solubility in [12] above 169000 µg/mL. The same molecule displayed a Cmax in [13] of 0.371 µg/mL. Further, the hepatocyte CLint in data set [14] was determined as 7.2 µL/min/1e6 cells. In data set [15], this molecule showed a bioavailability of 74%.

Consider `COc1cc(NC(C(=O)c2c[nH]c3ccccc23)c2ccc(F)cc2OC)cc(S(C)(=O)=O)c1` (single isomer, unassigned; (+)), for which the hepatocyte CLint in [4] was found to be 7 µL/min/1e6 cells. For the same molecule, the microsomal CLint came out at 9 µL/min/mg in data set [1], 15 µL/min/mg in data set [2] and 27 µL/min/mg in data set [3]. For the same molecule, the negative logarithm of the EC50 (pEC50) was 6.92 in the data set with dengue virus type 3; 6.64 in the data set with dengue virus type 4; 7.92 in the data set with dengue virus type 1 (Dengue virus, TC974#666, Vero); 8.70 in the data set with dengue virus type 2.

Take `COc1cc(NC(C(=O)c2c[nH]c3cc(OC)c(C)cc23)c2ccc(F)cc2OC)cc(S(C)(=O)=O)c1` (single isomer, unassigned; (+)): the hepatocyte CLint came out at 7.6 µL/min/1e6 cells in data set [4] and 17 µL/min/1e6 cells in data set [14]. This molecule also showed a clearance in data set [5] of 0.84 L/h/kg. Further, the pEC50 with dengue virus type 3 was 7.26; with dengue virus type 4, 6.96; in the data set with dengue virus type 1 (Dengue virus, TC974#666, Vero) it was 7.40; with dengue virus type 2 it was 9.21. In data set [6], the solubility thermodynamic at 24 h was found to be 1 µg/mL (≈ 1.9 µM). Further, the half-life in data set [7] is 5.1 h. Also, the LBF in [8] is on record as 20%. The AUC in data set [9] is 3.7 µg·h/mL. Moreover, the “Chromatographic log D at pH 7.4” value in [10] was found to be 3.36. Besides, in data set [11], the Vd came out at 5.5 L/kg. For the same molecule, the Therm_solubility in [12] was 93000 µg/mL. Further, the highest level in data set [13] (Cmax) was 0.263 µg/mL. The molecule further displayed a bioavailability in [15] of 31%.

Source of the values: ChEMBL document CHEMBL5518227, “Discovery of JNJ-1802, a First-in-Class Pan-Serotype Dengue Virus NS4B Inhibitor” (J Med Chem, 2024).
